Measured values reported in patent US9828339B2, “Biphenyl derivatives and methods for preparing same” (DONG-A ST CO., LTD, priority 2013, dated 2017).

Assays:
[1] = target: T1, human muscarinic M3 receptor (Homo sapiens (Human), UniProt P20309); experiment: Binding assay on human muscarinic M3 receptor ([3H]-methyl scopolamine displacement); details: membranes overexpressing human M3 receptor, Ki from IC50 by Cheng-Prusoff, read-out: Binding Affinity to M3 Receptor, Ki
Method in brief: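 Displacement of [3H]-methyl scopolamine from membranes overexpressing human M3, in Tris-HCl, 25 °C, 120 min; filter-bound radioactivity counted. Nonspecific binding with 5 μM atropine; Ki from IC50 via Cheng-Prusoff.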

[2] = target: T1, human muscarinic M3 receptor; experiment: Antagonism assay on human muscarinic M3 receptor (carbachol-induced intracellular calcium, FLIPR Calcium 5, transfected Cos-7 cells); assay type: cell-based; details: functional inhibitory constant; carbachol-induced intracellular calcium in Cos-7 cells transfected with human M3 receptor
Protocol: [Experimental Example 2] Antagonism Assay on Human Muscarinic M3 Receptor
The antagonism assay for various compounds of the present invention was conducted on antagonism to human M3 receptor in Cos-7 cells that was transfected with plasmid coding human muscarinic M3 receptor. Test compounds in various concentrations were pre-treated to the cells for 3 minutes, and then the changes of intracellular calcium were measured after treating the same with carbachol (i.e. muscarinic receptor agonist). The FLIPR® Calcium 5 assay (Molecular Devices) and Flex3 device (Molecular Devices) were used to measure concentration of calcium. Amounts of calcium before and after carbachol treatment were set as 0% and 100% respectively. Inhibition rates (%) by the compounds for increase in intracellular calcium by carbachol were calculated. The antagonistic potency of the test compounds on human muscarinic M3 receptor was calculated as the functional inhibitory constant (Ki), which can be calculated from concentration (IC50) of compound inhibiting 50% of activity of carbachol according to Cheng and Prusoff equation.

T1 sequence (P20309 whole entry): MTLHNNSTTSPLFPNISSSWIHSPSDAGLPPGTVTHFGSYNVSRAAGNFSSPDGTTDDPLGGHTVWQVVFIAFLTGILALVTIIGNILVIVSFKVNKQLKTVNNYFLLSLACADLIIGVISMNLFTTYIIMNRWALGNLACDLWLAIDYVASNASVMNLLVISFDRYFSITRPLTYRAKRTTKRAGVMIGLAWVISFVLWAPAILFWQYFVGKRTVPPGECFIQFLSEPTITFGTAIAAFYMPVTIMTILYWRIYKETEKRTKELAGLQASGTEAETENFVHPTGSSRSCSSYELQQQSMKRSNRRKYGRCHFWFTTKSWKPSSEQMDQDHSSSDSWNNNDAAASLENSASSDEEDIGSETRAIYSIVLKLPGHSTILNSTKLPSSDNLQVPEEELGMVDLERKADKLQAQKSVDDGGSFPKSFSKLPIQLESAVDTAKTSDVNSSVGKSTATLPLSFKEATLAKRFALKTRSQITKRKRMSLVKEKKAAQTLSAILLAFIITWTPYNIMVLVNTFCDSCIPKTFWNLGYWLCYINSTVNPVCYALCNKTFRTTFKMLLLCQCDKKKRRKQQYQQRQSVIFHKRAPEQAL

CN1CCCC1CCOC(=O)Nc1ccc(F)cc1-c1ccccc1 (centres unmarked) [Example 21, 2-(1-methylpyrrolidin-2-yl)ethyl(5-fluoro-[1,1′-biphenyl]-2-yl)carbamate]
Ki [1]: 2.25 nM | Ki [2]: 0.49 nM

CN1CCCC1CCOC(=O)Nc1ccccc1-c1ccc(F)c(Cl)c1 (centres unmarked) [Example 41, 2-(1-methylpyrrolidin-2-yl)ethyl(3′-chloro-4′-fluoro-[1,1′-biphenyl]-2-yl)carbamate]
Ki [1]: 2.45 nM | Ki [2]: 0.18 nM

CN1CCCC1CCOC(=O)Nc1ccc(F)cc1-c1ccc(F)c(F)c1 (centres unmarked) [Example 42, 2-(1-methylpyrrolidin-2-yl)ethyl(3′,4′,5-trifluoro-[1,1′-biphenyl]-2-yl)carbamate]
Ki [1]: 9.21 nM | Ki [2]: 1.19 nM

CN1CCCC1CCOC(=O)Nc1ccc(F)cc1-c1cc(Cl)c(F)c(Cl)c1 (centres unmarked) [Example 56, 2-(1-methylpyrrolidin-2-yl)ethyl(3′,5′-dichloro-4′,5-difluoro-[1,1′-biphenyl]-2-yl)carbamate]
Ki [1]: 12.5 nM | Ki [2]: 10 nM

CN1CCCC1CCOC(=O)Nc1ccc(F)cc1-c1ccc(O)c(Cl)c1 (centres unmarked) [Example 58, 2-(1-methylpyrrolidin-2-yl)ethyl(3′-chloro-5-fluoro-4′-hydroxy-[1,1′-biphenyl]-2-yl)carbamate]
Ki [1]: 26.3 nM | Ki [2]: 4.7 nM

CN1CCCC1CCOC(=O)Nc1ccc(Cl)cc1-c1cccc(F)c1 (centres unmarked) [Example 67, 2-(1-Methylpyrrolidin-2-yl)ethyl(5-chloro-3′-fluoro-[1,1′-biphenyl]-2-yl)carbamate]
Ki [1]: 16.3 nM | Ki [2]: 11.9 nM

CN1CCCC1CCOC(=O)Nc1ccc(Cl)cc1-c1ccc(F)cc1 (centres unmarked) [Example 68, 2-(1-Methylpyrrolidin-2-yl)ethyl(5-chloro-4′-fluoro-[1,1′-biphenyl]-2-yl)carbamate]
Ki [1]: 13.2 nM | Ki [2]: 13.2 nM

CN1CCCC1CCOC(=O)Nc1ccc(O)cc1-c1ccc(F)c(Cl)c1 (centres unmarked) [Example 77, 2-(1-methylpyrrolidin-2-yl)ethyl (3′-chloro-4′-fluoro-5-hydroxy-[1,1′-biphenyl]-2-yl)carbamate]
Ki [1]: 22 nM | Ki [2]: 10 nM

CN1CC[C@@H](COC(=O)Nc2ccccc2-c2ccc(F)cc2)C1 [Example 114, (R)-(1-methylpyrrolidin-3-yl)methyl(4′-fluoro-[1,1′-biphenyl]-2-yl)carbamate]
Ki [1]: 4.23 nM | Ki [2]: 0.58 nM

CN1CC[C@@H](COC(=O)Nc2ccccc2-c2ccc(F)c(F)c2)C1 [Example 115, (R)-(1-methylpyrrolidin-3-yl)methyl(3′,4′-difluoro-[1,1′-biphenyl]-2-yl)carbamate]
Ki [1]: 7.49 nM | Ki [2]: 0.32 nM

CN1CC[C@H](COC(=O)Nc2ccccc2-c2cccc(F)c2)C1 [Example 116, (S)-(1-methylpyrrolidin-3-yl)-methyl (3′-fluoro-[1,1′-biphenyl]-2-yl)carbamate]
Ki [1]: 12.6 nM | Ki [2]: 1.21 nM

CN1CC[C@H](COC(=O)Nc2ccccc2-c2cccc(Cl)c2)C1 [Example 118, (S)-(1-methylpyrrolidin-3-yl)methyl(3′-chloro-[1,1′-biphenyl]-2-yl)carbamate]
Ki [1]: 2.42 nM | Ki [2]: 0.77 nM

CN1CC[C@H](COC(=O)Nc2ccccc2-c2cc(F)cc(Cl)c2)C1 [Example 120, (S)-(1-methylpyrrolidin-3-yl)methyl(3′-chloro-5′-fluoro-[1,1′-biphenyl]-2-yl)carbamate]
Ki [1]: 9.7 nM | Ki [2]: 1.03 nM

CN1CC[C@H](COC(=O)Nc2ccc(F)cc2-c2cc(Cl)cc(Cl)c2)C1 [Example 126, (S)-(1-methylpyrrolidin-3-yl)methyl(3′,5′-dichloro-5-fluoro-[1,1′-biphenyl]-2-yl)carbamate]
Ki [1]: 24.8 nM | Ki [2]: 17.5 nM

CN1CC[C@@H](COC(=O)Nc2ccccc2-c2ccc(Cl)c(Cl)c2)C1 [Example 130, (R)-(1-methylpyrrolidin-3-yl)-methyl (3′,4′-dichloro-[1,1′-biphenyl]-2-yl)carbamate]
Ki [1]: 2.1 nM | Ki [2]: 1.14 nM

CN1CC[C@@H](COC(=O)Nc2ccccc2-c2cc(F)cc(Cl)c2)C1 [Example 132, (R)-(1-methylpyrrolidin-3-yl)methyl(3′-chloro-5′-fluoro-[1,1′-biphenyl]-2-yl)carbamate]
Ki [1]: 4.64 nM | Ki [2]: 0.75 nM

CN1CC[C@@H](COC(=O)Nc2ccc(F)cc2-c2cc(Cl)cc(Cl)c2)C1 [Example 135, (R)-(1-methylpyrrolidin-3-yl)methyl(3′,5′-dichloro-5-fluoro-[1,1′-biphenyl]-2-yl)carbamate]
Ki [1]: 24.1 nM | Ki [2]: 16.5 nM

CN1CC[C@@H](COC(=O)Nc2ccc(F)cc2-c2ccc(F)cc2)C1 [Example 141, (R)-(1-methylpyrrolidin-3-yl)methyl(4′,5-difluoro-[1,1′-biphenyl]-2-yl)carbamate]
Ki [1]: 7.57 nM | Ki [2]: 0.35 nM

CN1CC[C@@H](COC(=O)Nc2ccc(F)cc2-c2ccccc2F)C1 [Example 144, (R)-(1-methylpyrrolidin-3-yl)methyl(2′,5-difluoro-[1,1′-biphenyl]-2-yl)carbamate]
Ki [1]: 17.2 nM | Ki [2]: 1.42 nM

CN1CCC[C@H]1COC(=O)Nc1ccccc1-c1cc(F)cc(Cl)c1 [Example 148, (S)-(1-methylpyrrolidin-2-yl)methyl(3′-chloro-5′-fluoro-[1,1′-biphenyl]-2-yl)carbamate]
Ki [1]: 10.2 nM | Ki [2]: 2.22 nM

CN1CCC[C@H]1COC(=O)Nc1ccccc1-c1ccc(F)c(Cl)c1 [Example 149, (S)-(1-methylpyrrolidin-2-yl)methyl(3′-chloro-4′-fluoro-[1,1′-biphenyl]-2-yl)carbamate]
Ki [1]: 1.57 nM | Ki [2]: 0.1 nM

CC(C)N1CC[C@@H](COC(=O)Nc2ccccc2-c2ccc(F)c(Cl)c2)C1 [Example 151, (R)-(1-isopropylpyrrolidin-3-yl)-methyl (3′-chloro-4′-fluoro-[1,1′-biphenyl]-2-yl)carbamate]
Ki [1]: 14.9 nM | Ki [2]: 2.67 nM

CN1CC[C@@H](COC(=O)Nc2ccccc2-c2ccccc2F)C1 [Example 156, (R)-(1-methylpyrrolidin-3-yl)methyl(2′-fluoro-[1,1′-biphenyl]-2-yl)carbamate]
Ki [1]: 10.6 nM | Ki [2]: 1.15 nM

CN1CC[C@@H](COC(=O)Nc2ccccc2-c2ccc(F)cc2F)C1 [Example 157, (R)-(1-methylpyrrolidin-3-yl)methyl-(2′,4′-difluoro-[1,1′-biphenyl]-2-yl)carbamate]
Ki [1]: 29.6 nM | Ki [2]: 3.25 nM

CN1CC[C@@H](COC(=O)Nc2ccccc2-c2cc(Cl)ccc2F)C1 [Example 159, (R)-(1-methylpyrrolidin-3-yl)methyl(3′-chloro-6′-fluoro-[1,1′-biphenyl]-2-yl)carbamate]
Ki [1]: 5.13 nM | Ki [2]: 0.46 nM

CN1CCCC1CCOC(=O)Nc1ccccc1-c1ccc(F)cc1F (centres unmarked) [Example 183, 2-(1-Methylpyrrolidin-2-yl)ethyl (2′,4′-difluoro-[1,1′-biphenyl]-2-yl)carbamate]
Ki [1]: 18.9 nM | Ki [2]: 2.57 nM

CN1CCCC1CCOC(=O)Nc1ccccc1-c1cc(Cl)ccc1F (centres unmarked) [Example 186, 2-(1-Methylpyrrolidin-2-yl)ethyl (5′-chloro-2′-fluoro-[1,1′-biphenyl]-2-yl)carbamate]
Ki [1]: 4.68 nM | Ki [2]: 0.34 nM

CN1CCC[C@H]1COC(=O)Nc1ccccc1-c1ccccc1F [Example 187, (S)-(1-methylpyrrolidin-2-yl)methyl(2′-fluoro-[1,1′-biphenyl]-2-yl)carbamate]
Ki [1]: 10.7 nM | Ki [2]: 0.48 nM

CN1CCC[C@H]1COC(=O)Nc1ccccc1-c1ccc(F)cc1F [Example 188, (S)-(1-methylpyrrolidin-2-yl)methyl(2′,4′-difluoro-[1,1′-biphenyl]-2-yl)carbamate]
Ki [1]: 13.7 nM | Ki [2]: 2.23 nM

CN1CCC[C@H]1COC(=O)Nc1ccccc1-c1cc(Cl)ccc1F [Example 190, (S)-(1-methylpyrrolidin-2-yl)methyl(3′-chloro-6′-fluoro-[1,1′-biphenyl]-2-yl)carbamate]
Ki [1]: 2.17 nM | Ki [2]: 0.95 nM

COc1ccc(-c2cc(F)ccc2NC(=O)OC[C@@H]2CCCN2C)cc1OC [Example 220, (S)-(1-methylpyrrolidin-2-yl)methyl (5-fluoro-3′,4′-dimethoxy-[1,1′-biphenyl]-2-yl)carbamate]
Ki [1]: > 1000 nM

COc1cc(OC)cc(-c2cc(F)ccc2NC(=O)OC[C@@H]2CCCN2C)c1 [Example 221, (S)-(1-methylpyrrolidin-2-yl)methyl(5-fluoro-3′,5′-dimethoxy-[1,1′-biphenyl]-2-yl)carbamate]
Ki [1]: > 1000 nM

COc1ccc(NC(=O)OC[C@@H]2CCCN2C)c(-c2ccccc2)c1 [Example 222, (S)-(1-methylpyrrolidin-2-yl)methyl(5-methoxy-[1,1′-biphenyl]-2-yl)carbamate]
Ki [1]: 28.3 nM

COc1ccc(NC(=O)OC[C@@H]2CCCN2C)c(-c2cccc(F)c2)c1 [Example 223, (S)-(1-methylpyrrolidin-2-yl)methyl(3′-fluoro-5-methoxy-[1,1′-biphenyl]-2-yl)carbamate]
Ki [1]: 121 nM

COc1ccc(NC(=O)OC[C@@H]2CCCN2C)c(-c2ccc(Cl)c(Cl)c2)c1 [Example 225, (S)-(1-methylpyrrolidin-2-yl)methyl (3′,4′-dichloro-5-methoxy-[1,1′-biphenyl]-2-yl)carbamate]
Ki [1]: 53.6 nM
